Results: patent US20090093454A1, “Chemical Compounds” (priority 2005, published 2009)
pIC50: −log10 of the molar value. Structures can show the parent of a compound that is named as a salt. Where two headings read alike, the source gives them in different places.

Assays:
[1] = Compound cytotoxicity in absence of virus (CellTiter-Glo); type: cell-based; conditions: human
Method: (§1) Compounds were profiled against two HIV-1 viruses, the M-tropic (CCR5 utilizing) Ba-L strain and the T-tropic (CXCR4 utilizing) IIIB strain. Both viruses were propagated in human peripheral blood lymphocytes. Compounds were tested for there ability to block infection of the HOS cell line (expressing hCXCR4/hCCR5/hCD4/pHIV-LTR-luciferase) by either HIV-1 Ba-L or HIV-1, IIIB. Compound cytotoxicity was also examined in the absence of virus addition.
(§2) HOS cells (expressing hCXCR4/hCCR5/hCD4/pHIV-LTR-luciferase) were harvested and diluted in Dulbeccos modified Eagles media supplemented with 2% FCS and non-essential amino acid to a concentration of 60,000 cells/ml. The cells were plated into 96-well plates (100 ul per well) and the plates were placed in a tissue culture incubator (37° C.; 5% CO2/95% air) for a period of 24 h.
(§3) Subsequently, 50 ul of the desired drug solution (4 times the final concentration) was added to each well and the plates were returned to the tissue culture incubator (37° C.; 5% CO2/95% air) for 1 h. Following this incubation 50 ul of diluted virus was added to each well (approximately 2 million RLU per well of virus). The plates were returned to the tissue culture incubator (37° C.; 5% CO2/95% air) and were incubated for a further 96 h.
(§4) Following this incubation the endpoint for the virally infected cultures was quantified following addition of Steady-Glo Luciferase assay system reagent (Promega, Madison, Wis.). Cell viability or non-infected cultures was measured using a CellTiter-Glo luminescent cell viability assay system (Promega, Madison, Wis.). All luminescent readouts are performed on a Topcount luminescence detector (Packard, Meridien, Conn.).
as §1, with “Ba-L was” for “Both viruses were”, “either peripheral blood lymphocytes or SupT1/CCR5+/CXCR4+ cells. IIIB was propagated in” for “human”, “their” for “there”
as §2, with “FCS” for “FCS and non-essential amino acid”, “120,000” for “60,000”, “(50 μl” for “(100 ul”, “(370°” for “(37°”
(§5) Subsequently, 50 μl of the desired drug solution (2 times the final concentration) was added to each well and the plates were returned to the tissue culture incubator (370° C.; 5% CO2/95% air) for 1 h. Following this incubation, 60 μl of diluted virus (4 times the final concentration) was added to 60 μl of 2× the final desired concentration of the compound and 100 μl of this compound/virus mix was added to each well (approximately 2 million RLU per well of virus). The plates were returned to the tissue culture incubator (370° C.; 5% CO2/95% air) and were incubated for a further 96 h.

[2] = test system: HIV-1 IIIB; test: HOS HIV-1 infectivity assay, IIIB strain; type: cell-based; conditions: 96 h; for pIC50: Human immunodeficiency virus 1, T-tropic (CXCR4 utilizing) IIIB strain, HOS cells, luciferase, read-out: HOS (3B); for IC50: Human immunodeficiency virus 1, IIIB, HOS, read-out: HOS (3B) (μM)
Method: as §1, §2, §3, §4
as §1, with “Ba-L was” for “Both viruses were”, “either peripheral blood lymphocytes or SupT1/CCR5+/CXCR4+ cells. IIIB was propagated in” for “human”, “their” for “there”
as §2, with “FCS” for “FCS and non-essential amino acid”, “120,000” for “60,000”, “(50 μl” for “(100 ul”, “(370°” for “(37°”
as §5

[3] = HOS cells, no virus added, cell viability, read-out: Cytotox (pIC50) (converted)

SMILES | IC50 at 96 h [1, 3] [nM] | pIC50 [2] | IC50 at 96 h [1] [nM] | IC50 [2] [µM]
c1cnc2c(c1)CC[C@@H]1CCCN(Cc3nc4ccccc4n3Cc3ccncc3)[C@H]21 (racemic) [Example 12, (cis)-1-{[1-(4-Pyridinylmethyl)-1H-benzimidazol-2-yl]methyl}-1,2,3,4,4a,5,6,10b-octahydro-1,10-phenanthroline] | > 100000 | 6.11 |  | 
CN1CCN(c2cccc3nc(CN4CCC[C@H]5CCc6cccnc6[C@H]54)cn23)CC1 (racemic) [Example 15B, (cis)-1-{[5-(4-Methyl-1-piperazinyl)imidazo[1,2-a]pyridin-2-yl]methyl}-1,2,3,4,4a,5,6,10b-octahydro-1,10-phenanthroline] | > 100000 | 8.40 |  | 
c1cnc2c(c1)CC[C@H]1CCCN(Cc3nc4ccccc4[nH]3)[C@H]21 (racemic) [Example 6, (trans)-1-(1H-Benzimidazol-2-ylmethyl)-1,2,3,4,4a,5,6,10b-octahydro-1,10-phenanthroline] |  |  | 31600 | 0.47
CN1CCN(c2cccc3[nH]c(CN4CCC[C@@H]5CCc6cccnc6[C@H]54)nc23)CC1 (racemic) [Example 32, (trans)-1-{[4-(4-Methyl-1-piperazinyl)-1H-benzimidazol-2-yl]methyl}-1,2,3,4,4a,5,6,10b-octahydro-1,10-phenanthroline trifluoroacetate] | > 10000 | 6.59 |  | 
CN1CCN(c2cccc3nc(CN4CCC[C@H]5CCc6cccnc6[C@H]54)[nH]c23)CC1 (racemic) [Example 33, (cis)-1-{[4-(4-Methyl-1-piperazinyl)-1H-benzimidazol-2-yl]methyl}-1,2,3,4,4a,5,6,10b-octahydro-1,10-phenanthroline] | 37200 | 8.46 |  | 
CN(C)CCCn1c(CN2CCC[C@@H]3CCc4cccnc4[C@H]32)nc2ccccc21 (stereo in doubt) [Example 10B, (3-{2-[(4aS,10bS)-3,4,4a,5,6,10b-Hexahydro-1,10-phenanthrolin-1(2H)-ylmethyl]-1H-benzimidazol-1-yl}propyl)dimethylamine] | > 100000 | 6.85 |  | 
NCCCn1c(CN2CCC[C@H]3CCc4cccnc4[C@H]32)nc2ccccc21 (racemic) [Example 9, (cis)-3-[2-(3,4,4a,5,6,10b-Hexahydro-1,10-phenanthrolin-1(2H)-ylmethyl)-1H-benzimidazol-1-yl]-1-propanamine] | 28800 | 7.14 |  | 
c1cnc2c(c1)CC[C@@H]1CCCN(Cc3nc4ccccc4[nH]3)[C@H]21 (racemic) [Example 7, (cis)-1-(1H-Benzimidazol-2-ylmethyl)-1,2,3,4,4a,5,6,10b-octahydro-1,10-phenanthroline] |  |  | > 100000 | 1
CN1CCCC(Cn2c(CN3CCC[C@H]4CCc5cccnc5[C@H]43)nc3ccccc32)C1 (mixture of isomers) [Example 13, (cis)-1-({1-[(1-Methyl-3-piperidinyl)methyl]-1H-benzimidazol-2-yl}methyl)-1,2,3,4,4a,5,6,10b-octahydro-1,10-phenanthroline] | > 100000 | 7.30 |  | 
CN1CCN(c2cccc3nc(CN4CCC[C@H]5CCc6cccnc6[C@H]54)cn23)CC1 [Example 27, (4aR,10bS)-1-{[5-(4-Methyl-1-piperazinyl)imidazo[1,2-a]pyridin-2-yl]methyl}-1,2,3,4,4a,5,6,10b-octahydro-1,10-phenanthroline] | > 10000 | 8.40 |  | 
CN1CCN(c2cccc3nc(CN4CCC[C@@H]5CCc6cccnc6[C@H]54)cn23)CC1 (racemic) [Example 15A, (trans)-1-{[5-(4-Methyl-1-piperazinyl)imidazo[1,2-a]pyridin-2-yl]methyl}-1,2,3,4,4a,5,6,10b-octahydro-1,10-phenanthroline] | > 100000 | 7.48 |  | 
CN(C)CCCn1c(CN2CCC[C@@H]3CCc4cccnc4[C@@H]32)nc2ccccc21 [Example 11A, (3-{2-[(4aS,10bR)-3,4,4a,5,6,10b-Hexahydro-1,10-phenanthrolin-1(2H)-ylmethyl]-1H-benzimidazol-1-yl}propyl)dimethylamine] | > 100000 | 6.28 |  | 
CN1CCN(c2cccc3nc(CN4CCC[C@@H]5CCc6cccnc6[C@@H]54)cn23)CC1 [Example 22, (4aS,10bR)-1-{[5-(4-Methyl-1-piperazinyl)imidazo[1,2-a]pyridin-2-yl]methyl}-1,2,3,4,4a,5,6,10b-octahydro-1,10-phenanthroline] | > 100000 | 7.00 |  | 
CN(C)CCCn1c(CN2CCC[C@H]3CCc4cccnc4[C@@H]32)nc2ccccc21 (stereo in doubt) [Example 10A, (3-{2-[(4aR,10bR)-3,4,4a,5,6,10b-Hexahydro-1,10-phenanthrolin-1(2H)-ylmethyl]-1H-benzimidazol-1-yl}propyl)dimethylamine] | > 100000 | 6.48 |  | 
NCCCn1c(CN2CCC[C@@H]3CCc4cccnc4[C@H]32)nc2ccccc21 (racemic) [Example 8, (trans)-3-[2-(3,4,4a,5,6,10b-Hexahydro-1,10-phenanthrolin-1(2H)-ylmethyl)-1H-benzimidazol-1-yl]-1-propanamine] | > 100000 | 6.66 |  | 
CN(C)CCCn1c(CN2CCC[C@H]3CCc4cccnc4[C@H]32)nc2ccccc21 [Example 11B, (3-{2-[(4aR,10bS)-3,4,4a,5,6,10b-Hexahydro-1,10-phenanthrolin-1(2H)-ylmethyl]-1H-benzimidazol-1-yl}propyl)dimethylamine] | > 100000 | 7.46 |  | 
